According to US20250090540A1, “PI3K-ALPHA INHIBITORS AND METHODS OF USE THEREOF” (Relay Therapeutics, Inc., priority 2021, published 2025):

Columns and labels:
H1047R PIK3CA enzyme = H1047R PIK3CA enzyme (Homo sapiens, UniProt P42336, H1047R); assay: ADP-Glo Biochemical PIK3CA Kinase Assay
cells = conditions: Homo sapiens, MCF-10A, read-out: MCF10A I50

Chain of H1047R PIK3CA enzyme (P42336 whole entry H1047R): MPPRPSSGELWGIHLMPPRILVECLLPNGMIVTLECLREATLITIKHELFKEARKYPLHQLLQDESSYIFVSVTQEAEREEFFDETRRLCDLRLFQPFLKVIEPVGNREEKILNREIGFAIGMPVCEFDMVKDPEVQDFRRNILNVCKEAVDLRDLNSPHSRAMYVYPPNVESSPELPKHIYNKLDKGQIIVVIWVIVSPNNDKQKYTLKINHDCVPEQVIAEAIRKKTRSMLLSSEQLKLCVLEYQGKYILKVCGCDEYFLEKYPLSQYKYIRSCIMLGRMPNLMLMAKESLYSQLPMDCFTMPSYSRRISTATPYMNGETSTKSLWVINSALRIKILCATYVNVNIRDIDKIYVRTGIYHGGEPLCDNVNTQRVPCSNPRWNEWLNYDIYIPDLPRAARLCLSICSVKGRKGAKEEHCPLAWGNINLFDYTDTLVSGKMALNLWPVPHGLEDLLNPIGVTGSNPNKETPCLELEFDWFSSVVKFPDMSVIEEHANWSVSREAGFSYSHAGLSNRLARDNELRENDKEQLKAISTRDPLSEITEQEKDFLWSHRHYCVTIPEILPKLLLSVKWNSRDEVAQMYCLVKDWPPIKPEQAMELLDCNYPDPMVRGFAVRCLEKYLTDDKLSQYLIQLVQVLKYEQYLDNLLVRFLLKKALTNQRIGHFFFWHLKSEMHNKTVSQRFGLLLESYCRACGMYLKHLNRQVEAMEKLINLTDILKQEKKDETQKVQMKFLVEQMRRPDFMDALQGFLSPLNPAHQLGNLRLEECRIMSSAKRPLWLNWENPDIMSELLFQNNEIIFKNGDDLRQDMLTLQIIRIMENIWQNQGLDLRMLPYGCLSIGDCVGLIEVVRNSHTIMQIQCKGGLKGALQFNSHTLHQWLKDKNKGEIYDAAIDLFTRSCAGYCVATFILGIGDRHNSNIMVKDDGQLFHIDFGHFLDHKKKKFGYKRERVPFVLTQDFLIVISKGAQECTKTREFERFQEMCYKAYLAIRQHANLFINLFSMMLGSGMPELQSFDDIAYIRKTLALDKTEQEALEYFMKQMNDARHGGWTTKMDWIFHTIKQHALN
Chain of H1047R PIK3CA enzyme (P27986 whole entry partner): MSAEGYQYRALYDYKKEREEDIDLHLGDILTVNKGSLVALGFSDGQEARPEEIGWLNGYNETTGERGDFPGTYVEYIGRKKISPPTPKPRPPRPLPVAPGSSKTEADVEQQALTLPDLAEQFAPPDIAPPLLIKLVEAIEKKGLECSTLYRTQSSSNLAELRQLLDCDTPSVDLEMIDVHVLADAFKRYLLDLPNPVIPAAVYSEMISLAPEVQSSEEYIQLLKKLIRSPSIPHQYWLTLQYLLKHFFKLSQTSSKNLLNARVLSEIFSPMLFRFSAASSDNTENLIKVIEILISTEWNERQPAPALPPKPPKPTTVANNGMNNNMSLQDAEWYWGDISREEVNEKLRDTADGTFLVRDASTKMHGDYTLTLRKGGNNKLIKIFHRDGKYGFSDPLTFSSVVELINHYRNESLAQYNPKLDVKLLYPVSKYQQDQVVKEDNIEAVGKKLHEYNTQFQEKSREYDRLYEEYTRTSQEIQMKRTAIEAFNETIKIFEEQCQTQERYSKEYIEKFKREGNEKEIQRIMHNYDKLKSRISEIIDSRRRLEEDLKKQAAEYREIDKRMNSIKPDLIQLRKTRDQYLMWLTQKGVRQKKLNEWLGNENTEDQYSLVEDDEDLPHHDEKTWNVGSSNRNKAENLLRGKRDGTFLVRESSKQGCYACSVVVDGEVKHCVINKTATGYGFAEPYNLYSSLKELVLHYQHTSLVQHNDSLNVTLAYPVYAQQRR

| SMILES | IC50 (H1047R PIK3CA enzyme) [nM] | IC50 (cells) [µM] |
| --- | --- | --- |
| CNC(=O)c1cnc(Nc2ccccc2C)c(NC(=O)c2csc3ccc(F)cc23)c1 [I-150] | 100 to 500 | 5 to 10 |
| Cc1ccccc1Nc1ncc(C(=O)NCc2ccn(C)n2)cc1NC(=O)c1cc(F)cc(C(F)(F)F)c1 [I-178] | 100 to 500 | 1 to 5 |
| O=C(NC1CS(=O)(=O)C1)c1cnc(N2CCCc3ccccc32)c(NC(=O)c2csc3ccccc23)c1 [I-180] | 100 to 500 | 10 to 36 |
| O=C(NCc1nccs1)c1cnc(N2CCCc3ccccc32)c(NC(=O)c2csc3ccccc23)c1 [I-181] | 100 to 500 | 10 to 36 |
| COCCNC(=O)c1cnc(Nc2ccccc2C)c(NC(=O)c2csc3ccccc23)c1 [I-190] | 100 to 500 | 10 to 36 |
| Cc1ccccc1Nc1ncc(C(=O)NCc2ccc(Cl)cc2)cc1NC(=O)c1csc2ccccc12 [I-191] | 100 to 500 | 1 to 5 |
| Cc1ccccc1Nc1ncc(C(=O)NC2COC2)cc1NC(=O)c1csc2ccccc12 [I-192] | 100 to 500 | 36 to 100 |
| Cc1ccccc1Nc1ncc(C(=O)NCc2cccnc2)cc1NC(=O)c1csc2ccccc12 [I-193] | 100 to 500 | 5 to 10 |
| Cc1ccccc1Nc1ncc(C(=O)NCC2CCCO2)cc1NC(=O)c1csc2ccccc12 (centres unmarked) [I-195] | 100 to 500 | 10 to 36 |
| Cc1ccccc1Nc1ncc(C(=O)NCC(F)(F)F)cc1NC(=O)c1csc2ccccc12 [I-196] | 100 to 500 | 5 to 10 |
| Cc1ccccc1Nc1ncc(C(=O)NC(C)c2ccccc2)cc1NC(=O)c1csc2ccccc12 (centres unmarked) [I-197] | ≤ 100 | 10 to 36 |
| Cc1ccccc1Nc1ncc(C(=O)NCC2CCOCC2)cc1NC(=O)c1csc2ccccc12 [I-198] | 100 to 500 | 10 to 36 |
| COc1cncc(CNC(=O)c2cnc(Nc3ccccc3C)c(NC(=O)c3csc4ccccc34)c2)c1 [I-199] | 100 to 500 | 10 to 36 |
| O=C(Nc1cc(C(=O)NC2CS(=O)(=O)C2)cnc1N1CCCc2ccccc21)c1cc(F)cc(C(F)(F)F)c1 [I-208] | 500 to 1000 | 5 to 10 |
| O=C(NCc1nccs1)c1cnc(N2CCCc3ccccc32)c(NC(=O)c2cc(F)cc(C(F)(F)F)c2)c1 [I-209] | 500 to 1000 | 10 to 36 |
| Cn1nccc1CNC(=O)c1cnc(N2CCCc3ccccc32)c(NC(=O)c2cc(F)cc(C(F)(F)F)c2)c1 [I-210] | 1000 to 10000 | 36 to 100 |
| Cc1ccccc1Nc1ncc(C(=O)NCC2CC(F)(F)C2)cc1NC(=O)c1cc(F)cc(C(F)(F)F)c1 [I-211] | 100 to 500 | 1 to 5 |

| SMILES | IC50 (H1047R PIK3CA enzyme) [nM] | IC50 (cells) [µM] |
| --- | --- | --- |
| Cc1ccccc1Nc1ncc(C(=O)NC2CC(F)(F)C2)cc1NC(=O)c1cc(F)cc(C(F)(F)F)c1 [I-212] | 100 to 500 | 1 to 5 |
| CNC(=O)c1cnc(N2C(=O)NCc3ccccc32)c(NC(=O)c2csc3ccccc23)c1 [I-215] | 1000 to 10000 | 36 to 100 |
| Cc1ccccc1Nc1ncc(C(=O)NCCS(C)(=O)=O)cc1NC(=O)c1cc(F)cc(C(F)(F)F)c1 [I-219] | 100 to 500 | 1 to 5 |
| Cc1cc(NC(=O)c2cnc(Nc3ccccc3C)c(NC(=O)c3cc(F)cc(C(F)(F)F)c3)c2)n[nH]1 [I-232] | 100 to 500 | 1 to 5 |
| Cc1ccccc1Nc1ncc(C(=O)Nc2ccncc2)cc1NC(=O)c1cc(F)cc(C(F)(F)F)c1 [I-234] | 100 to 500 | < 1 |
| Cc1ccccc1Nc1ncc(C(=O)Nc2cccnc2)cc1NC(=O)c1cc(F)cc(C(F)(F)F)c1 [I-239] | 100 to 500 | 1 to 5 |
| Cc1ccccc1Nc1ncc(C(=O)Nc2ccnnc2)cc1NC(=O)c1cc(F)cc(C(F)(F)F)c1 [I-240] | 100 to 500 | < 1 |
| O=C(NC1CS(=O)(=O)C1)c1cnc(N2CCOc3ccccc32)c(NC(=O)c2csc3ccccc23)c1 [I-245] | 100 to 500 | 5 to 10 |
| Cc1ccccc1Nc1ncc(C(=O)NC2CCCS(=O)(=O)C2)cc1NC(=O)c1cc(F)cc(C(F)(F)F)c1 (centres unmarked) [I-246] | 100 to 500 | < 1 |
| Cc1ccccc1Nc1ncc(C(=O)NC2CCS(=O)(=O)C2)cc1NC(=O)c1cc(F)cc(C(F)(F)F)c1 (centres unmarked) [I-247] | 100 to 500 | < 1 |
| Cc1ccccc1Nc1ncc(C(=O)NC2CC(F)(F)C2)cc1NC(=O)c1csc2ccccc12 [I-248] | 100 to 500 | 1 to 5 |
| CNC(=O)c1cnc(Nc2cccc(F)c2Cl)c(NC(=O)c2cc(F)cc(C(F)(F)F)c2)c1 [I-249] | 100 to 500 | 1 to 5 |
| O=C(NC1(c2cccnc2)CC1)c1cnc(N2CCOc3ccccc32)c(NC(=O)c2csc3ccccc23)c1 [I-256] | 100 to 500 | 1 to 5 |
| Cc1ccccc1Nc1ncc(C(=O)NC2CC3(COC3)C2)cc1NC(=O)c1cc(F)cc(C(F)(F)F)c1 [I-267] | 100 to 500 | < 1 |
| Cc1ccccc1Nc1ncc(C(=O)NC2CC(O)C2)cc1NC(=O)c1cc(F)cc(C(F)(F)F)c1 (centres unmarked) [I-274] | 100 to 500 | 1 to 5 |
| Cc1ccccc1Nc1ncc(C(=O)NC2CCC(O)C2)cc1NC(=O)c1cc(F)cc(C(F)(F)F)c1 (centres unmarked) [I-275] | 100 to 500 | 1 to 5 |
| Cc1ccccc1Nc1ncc(C(=O)NC2CCC(O)CC2)cc1NC(=O)c1cc(F)cc(C(F)(F)F)c1 (centres unmarked) [I-276] | 100 to 500 | 1 to 5 |
